Measurements: ChEMBL document CHEMBL1159343, “Isolation and structure of palstatin from the Amazon tree Hymeneae palustris(1)” (2003)
Converted amounts (≈) assume the structure as drawn. The source made the active and inactive calls. No cut-off for these calls is given here.

Assays:
P388 = assay: Cytotoxicity against mouse P388 cells after 48 hrs by SRB assay; assay type: functional; details: P388, 48 h
BXPC-3 = assay: Cytotoxicity against human BxPC3 cells after 48 hrs by SRB assay; assay type: functional; details: BXPC-3, 48 h
MCF7 = assay: Cytotoxicity against human MCF7 cells after 48 hrs by SRB assay; assay type: functional; details: MCF7, 48 h
SF-268 = assay: Cytotoxicity against human SF268 cells after 48 hrs by SRB assay; assay type: functional; details: SF-268, 48 h
NCI-H460 = assay: Cytotoxicity against human NCI-H460 cells after 48 hrs by SRB assay; assay type: functional; details: NCI-H460, 48 h
KM-20L2 = assay: Cytotoxicity against human KM20L2 cells after 48 hrs by SRB assay; assay type: functional; details: KM-20L2, 48 h
DU-145 = assay: Cytotoxicity against human DU145 cells after 48 hrs by SRB assay; assay type: functional; details: DU-145, 48 h
Neisseria gonorrhoeae = assay: Antimicrobial activity against Neisseria gonorrhoeae; assay type: functional
Escherichia coli = assay: Antimicrobial activity against Escherichia coli; assay type: functional
Streptococcus pneumoniae = assay: Antimicrobial activity against Streptococcus pneumoniae; assay type: functional, organism-based
Micrococcus luteus = assay: Antimicrobial activity against Micrococcus luteus; assay type: functional, organism-based
Enterobacter cloacae = assay: Antimicrobial activity against Enterobacter cloacae; assay type: functional, organism-based
Cryptococcus neoformans = assay: Antimicrobial activity against Cryptococcus neoformans; assay type: functional, organism-based
Candida albicans = assay: Antimicrobial activity against Candida albicans; assay type: functional, organism-based
[1] = test system: Stenotrophomonas maltophilia; assay: Antimicrobial activity against Stenotrophomonas maltophilia; assay type: functional, organism-based
Staphylococcus aureus = assay: Antimicrobial activity against Staphylococcus aureus; assay type: functional, organism-based

SMILES | GI50 (P388) [µg/mL] | GI50 (BXPC-3) [µg/mL] | GI50 (MCF7) [µg/mL] | GI50 (SF-268) [µg/mL] | GI50 (NCI-H460) [µg/mL] | GI50 (KM-20L2) [µg/mL] | GI50 (DU-145) [µg/mL] | MIC (Neisseria gonorrhoeae) [µg/mL] | MIC (Escherichia coli) [µg/mL] | Activity (Streptococcus pneumoniae) | Activity (Micrococcus luteus) | Activity (Enterobacter cloacae) | Activity (Cryptococcus neoformans) | Activity (Candida albicans) | Activity [1] | Activity (Staphylococcus aureus)
COc1cc([C@H]2Oc3cc(-c4cc(=O)c5c(O)cc(O)cc5o4)cc(OC)c3O[C@@H]2CO)ccc1O | 2.7 (≈ 5.46 µM) | 1.8 (≈ 3.64 µM) | 2.4 (≈ 4.85 µM) | 2.2 (≈ 4.45 µM) | 2 (≈ 4.04 µM) | 1.9 (≈ 3.84 µM) | 1.8 (≈ 3.64 µM) | 0.625 (≈ 1.26 µM) | 32 (≈ 64.7 µM) | inactive | inactive | inactive | inactive | inactive | inactive | inactive
COc1cc(-c2cc(=O)c3c(O)cc(O)cc3o2)ccc1O [CHRYSOERIOL] | 4 (≈ 13.3 µM) | 2.6 (≈ 8.66 µM) | 3.1 (≈ 10.3 µM) | 1.7 (≈ 5.66 µM) | 2.1 (≈ 6.99 µM) | 2.5 (≈ 8.33 µM) | 1.1 (≈ 3.66 µM) | – | – | inactive | inactive | inactive | inactive | inactive | inactive | inactive
COc1cc([C@H]2Oc3cc(-c4cc(=O)c5c(O)cc(O)cc5o4)ccc3O[C@@H]2CO)ccc1O [HYDNOCARPIN] | 9.5 (≈ 20.5 µM) | 1.5 (≈ 3.23 µM) | 2.7 (≈ 5.81 µM) | 2.6 (≈ 5.6 µM) | 2.3 (≈ 4.95 µM) | 2 (≈ 4.31 µM) | 1.9 (≈ 4.09 µM) | 0.5 (≈ 1.08 µM) | – | inactive | inactive | inactive | inactive | inactive | inactive | inactive
O=c1cc(-c2ccc(O)c(O)c2)oc2cc(O)cc(O)c12 [LUTEOLIN] | > 10 | > 10 | 9.4 (≈ 32.8 µM) | 9 (≈ 31.4 µM) | 3.8 (≈ 13.3 µM) | > 10 | 4.4 (≈ 15.4 µM) | 16 (≈ 55.9 µM) | 64 (≈ 224 µM) | inactive | inactive | inactive | inactive | inactive | inactive | inactive
COc1cc([C@H]2Oc3cc(-c4cc(=O)c5c(O)cc(O)cc5o4)cc(OC)c3O[C@@H]2CO)cc(OC)c1O [PALSTATIN] | 8.5 (≈ 16.2 µM) | 3.2 (≈ 6.1 µM) | 3.6 (≈ 6.86 µM) | > 10 | 5.9 (≈ 11.2 µM) | > 10 | > 10 | 1 (≈ 1.91 µM) | – | inactive | inactive | inactive | inactive | inactive | inactive | inactive
COc1cc(-c2cc(=O)c3c(O)cc(O)cc3o2)cc(OC)c1O [TRICIN] | > 10 | 7.5 (≈ 22.7 µM) | 7.7 (≈ 23.3 µM) | 3 (≈ 9.08 µM) | 6.5 (≈ 19.7 µM) | > 10 | 4.6 (≈ 13.9 µM) | – | – | inactive | inactive | inactive | inactive | inactive | inactive | inactive
